The target of series [1] is GPR56-ANT (a mutant lacking the extracellular domain) (Homo sapiens, UniProt Q9Y653). The series can be described thus: PRESTO-Tango on GPR56 truncation mutant. Particulars: titrating doses of L-Phe.
The target in another series is GPR97/AGRG3 (Homo sapiens, UniProt Q86Y34). The experiment in a line: GPR97 PRESTO-Tango. The following applies: titrating doses of pure amino acid.
A further series deals with GPR56/AGRG1 (Homo sapiens, UniProt Q9Y653). The experiment in a line: GPR56 PRESTO-Tango. The following applies: titrating doses of pure amino acid.
Sequence of GPR56/AGRG1 (Q9Y653 26-693): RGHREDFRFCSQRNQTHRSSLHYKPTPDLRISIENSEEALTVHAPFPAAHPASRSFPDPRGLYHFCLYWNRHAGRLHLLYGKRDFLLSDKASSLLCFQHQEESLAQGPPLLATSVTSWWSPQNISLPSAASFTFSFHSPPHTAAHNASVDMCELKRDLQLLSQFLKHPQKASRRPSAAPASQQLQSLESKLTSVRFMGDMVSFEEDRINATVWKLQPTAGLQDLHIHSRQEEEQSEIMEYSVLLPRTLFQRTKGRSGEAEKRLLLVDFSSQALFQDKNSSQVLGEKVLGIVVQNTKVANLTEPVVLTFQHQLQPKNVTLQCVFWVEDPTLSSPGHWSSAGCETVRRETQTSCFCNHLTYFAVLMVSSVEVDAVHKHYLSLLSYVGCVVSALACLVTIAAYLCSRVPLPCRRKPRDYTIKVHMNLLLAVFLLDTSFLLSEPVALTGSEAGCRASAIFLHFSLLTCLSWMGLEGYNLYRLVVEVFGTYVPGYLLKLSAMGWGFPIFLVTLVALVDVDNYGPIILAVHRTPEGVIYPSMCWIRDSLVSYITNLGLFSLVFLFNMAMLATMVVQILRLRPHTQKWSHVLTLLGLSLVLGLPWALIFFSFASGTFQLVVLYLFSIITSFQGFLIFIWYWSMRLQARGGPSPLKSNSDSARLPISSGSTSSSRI
The next series concerns the target T1, DRD4 (Homo sapiens, UniProt P21917).
T1 sequence (P21917 1-419): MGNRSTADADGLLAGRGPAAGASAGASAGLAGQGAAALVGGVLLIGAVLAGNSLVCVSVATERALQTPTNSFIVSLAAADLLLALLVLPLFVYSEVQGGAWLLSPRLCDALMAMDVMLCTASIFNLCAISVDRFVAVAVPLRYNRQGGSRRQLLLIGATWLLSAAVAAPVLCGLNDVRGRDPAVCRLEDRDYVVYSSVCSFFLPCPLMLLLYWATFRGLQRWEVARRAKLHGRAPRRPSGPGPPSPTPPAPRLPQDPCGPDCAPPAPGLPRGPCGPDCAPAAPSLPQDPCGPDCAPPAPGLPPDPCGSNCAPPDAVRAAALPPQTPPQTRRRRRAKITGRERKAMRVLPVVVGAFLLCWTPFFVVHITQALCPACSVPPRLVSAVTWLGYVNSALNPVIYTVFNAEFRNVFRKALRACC
The experiment in a line: DRD4 PRESTO-Tango. The format is cell-based. Particulars: pure ligand.

Series [2] has as its target T2, DRD2 (Homo sapiens, UniProt P14416). The series can be described thus: DRD2 PRESTO-Tango. The format is cell-based. The following applies: pure ligand.
In a further series the target is DRD3 (Homo sapiens, UniProt P35462). The series can be described thus: DRD3 PRESTO-Tango. The format is cell-based. The following applies: pure ligand.
Sequence of DRD3 (P35462 whole entry): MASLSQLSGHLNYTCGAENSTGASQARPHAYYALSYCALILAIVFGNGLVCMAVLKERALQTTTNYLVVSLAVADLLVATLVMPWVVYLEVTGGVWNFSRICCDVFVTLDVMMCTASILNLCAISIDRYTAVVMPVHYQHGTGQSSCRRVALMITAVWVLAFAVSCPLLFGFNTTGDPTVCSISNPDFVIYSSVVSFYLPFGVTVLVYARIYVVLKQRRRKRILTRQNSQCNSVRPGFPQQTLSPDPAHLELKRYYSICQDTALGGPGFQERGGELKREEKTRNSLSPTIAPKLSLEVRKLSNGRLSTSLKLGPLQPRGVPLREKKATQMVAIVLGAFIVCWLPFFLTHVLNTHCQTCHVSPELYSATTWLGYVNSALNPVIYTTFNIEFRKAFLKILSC
The target in series [3] is T2, DRD2. The following applies: for phenethylamine as measured by DRD2 activation by cecal and colonic extracts: L-Phe deficient diet, MAOI.
For series [4] the following is noted: in vivo; cited from earlier work.
Series [5] deals with colon motility. Particulars: rodents; cited from earlier work.
In series [6] the test system is colon motility. The experiment in a line: Intestinal motility by fecal output. The format is in vivo, C57Bl/6 mice. Particulars: M. morganii colonized mice, 1% L-His in water for 2 weeks.

Molecules are shown by their SMILES. Where two headings read alike, the source gives them in different places. A value given as a limit tells only on which side of the number the result lay.

T2 sequence (P14416 whole entry): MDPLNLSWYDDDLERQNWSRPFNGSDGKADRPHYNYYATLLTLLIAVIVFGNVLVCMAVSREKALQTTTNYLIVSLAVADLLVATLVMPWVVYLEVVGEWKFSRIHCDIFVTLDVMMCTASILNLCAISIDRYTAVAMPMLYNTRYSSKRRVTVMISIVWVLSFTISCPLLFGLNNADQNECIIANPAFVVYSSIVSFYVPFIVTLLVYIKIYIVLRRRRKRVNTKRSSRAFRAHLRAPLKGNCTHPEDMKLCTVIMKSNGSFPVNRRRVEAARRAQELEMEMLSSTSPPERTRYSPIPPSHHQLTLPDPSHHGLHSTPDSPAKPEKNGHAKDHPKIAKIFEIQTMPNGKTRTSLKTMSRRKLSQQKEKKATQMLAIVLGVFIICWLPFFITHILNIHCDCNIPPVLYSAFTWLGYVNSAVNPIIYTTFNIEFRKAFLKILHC
Sequence of GPR56-ANT (a mutant lacking the extracellular domain) (Q9Y653 383-693 limits assumed, change not shown): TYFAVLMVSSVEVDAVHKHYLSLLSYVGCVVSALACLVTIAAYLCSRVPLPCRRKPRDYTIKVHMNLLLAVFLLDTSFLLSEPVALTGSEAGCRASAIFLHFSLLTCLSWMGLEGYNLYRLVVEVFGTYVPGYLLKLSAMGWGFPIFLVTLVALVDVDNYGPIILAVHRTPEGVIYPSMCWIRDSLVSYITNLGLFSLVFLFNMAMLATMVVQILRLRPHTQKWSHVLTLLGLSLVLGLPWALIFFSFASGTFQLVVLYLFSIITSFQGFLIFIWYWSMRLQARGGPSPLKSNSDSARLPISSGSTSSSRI
Sequence of GPR97/AGRG3 (Q86Y34 21-549): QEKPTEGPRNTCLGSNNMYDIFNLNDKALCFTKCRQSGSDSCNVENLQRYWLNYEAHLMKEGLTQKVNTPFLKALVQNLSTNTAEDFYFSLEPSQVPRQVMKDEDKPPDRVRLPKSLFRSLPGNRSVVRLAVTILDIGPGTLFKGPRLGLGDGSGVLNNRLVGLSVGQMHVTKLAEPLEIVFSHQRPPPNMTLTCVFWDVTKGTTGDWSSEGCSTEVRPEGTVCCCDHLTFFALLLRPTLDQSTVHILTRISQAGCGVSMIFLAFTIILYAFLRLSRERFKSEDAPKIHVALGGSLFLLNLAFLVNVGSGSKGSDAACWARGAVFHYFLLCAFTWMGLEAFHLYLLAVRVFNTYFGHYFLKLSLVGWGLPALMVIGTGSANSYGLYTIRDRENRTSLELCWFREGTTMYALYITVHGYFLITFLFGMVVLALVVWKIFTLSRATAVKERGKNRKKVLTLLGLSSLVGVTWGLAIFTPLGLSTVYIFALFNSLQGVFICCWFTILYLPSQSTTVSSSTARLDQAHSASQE

As for `N[C@@H](Cc1ccccc1)C(=O)O` [L-Phe, L-phenylalanine], the “response of GPR56/AGRG1 truncation mutant lacking the extracellular domain” value in [1] was “failed to respond”. Besides, the “activation of GPR97/AGRG3” value at GPR97/AGRG3 is reported as “activated”. Moreover, the “activation of GPR56/AGRG1” value on GPR56/AGRG1 is “stereoselectively activated”.
Turning to `N[C@H](Cc1ccc(O)cc1)C(=O)O` [D-Tyr], the “activation of GPR56/AGRG1” value on GPR56/AGRG1 is “no activity”.
With `NCCc1ccc(O)cc1` [tyramine, Tyramine], on DRD4, the “activation of DRD4” value is “selective DRD2/DRD3/DRD4 agonists”. On DRD2 [2], the “activation of DRD2” value is “selective DRD2/DRD3/DRD4 agonists”. The “activation of DRD3” value at DRD3 is listed as “selective DRD2/DRD3/DRD4 agonists”.
For the compound `N[C@H](Cc1c[nH]c2ccccc12)C(=O)O` [D-Trp], the “activation of GPR56/AGRG1” value on GPR56/AGRG1 is listed as “no activity”.
For the compound `NNCCc1ccccc1` [phenelzine], the “DRD2 activation by cecal and colonic contents and serum” value at DRD2 [3] (MAOI-treated M. morganii colonized mice) was “activated DRD2”. Also, the “phenethylamine as measured by DRD2 activation by cecal and colonic extracts” value on DRD2 [3] (mice bi-colonized with C34 and M. morganii) was “significant levels of phenethylamine”. In addition, the “phenethylamine as measured by DRD2 activation by cecal and colonic extracts” value at DRD2 [3] (mice colonized with M. morganii alone) is on record as “minimal phenethylamine”. Besides, the “onset of lethargy after MAOI treatment” value (C57Bl/6, mouse, in vivo) was no more than 4 days. Moreover, for the setting “mice colonized with M. morganii, died before the seventh day of treatment”, the “mortality after treatment with MAOI” value is on record as “more than half”. Under “mouse, in vivo”, the “health after MAOI treatment” value is given as “remained healthy”, the “health after treatment with MAOI” value was “appeared healthy” and the “morbidity after treatment with MAOI” value is on record as “lethargic within days”.
Consider `NCCc1ccccc1` [phenethylamine, Phenethylamine], for which the “activation of DRD4” value at DRD4 is “selective DRD2/DRD3/DRD4 agonists”. For the same compound, the “activation of DRD2” value on DRD2 [2] is recorded as “selective DRD2/DRD3/DRD4 agonists”. The “crossing of the blood-brain barrier” value in [4] is “can readily cross”. The “activation of DRD3” value on DRD3 was “selective DRD2/DRD3/DRD4 agonists”.
For `N[C@@H](Cc1c[nH]c2ccccc12)C(=O)O` [L-Trp, L-tryptophan], the “activation of GPR56/AGRG1” value on GPR56/AGRG1 is “no activity”.
`NCCc1c[nH]cn1` [histamine, Histamine]: the “effect of oral gavage on colon motility” value in the series on colon motility [5] is reported as “increase colon motility”.
On to `N[C@H](Cc1c[nH]cn1)C(=O)O` [D-His], for which the “activation of GPR56/AGRG1” value on GPR56/AGRG1 is “no activity”.
For `N[C@@H](Cc1c[nH]cn1)C(=O)O` [L-His, L-histidine], the “activation of GPR56/AGRG1” value at GPR56/AGRG1 is reported as “no activity”. Moreover, the “fecal output upon supplementation with L-His” value with colon motility [6] is “further increased”.
For the compound `NCCc1ccc(O)c(O)c1` [dopamine, Dopamine], the “activation of DRD2” value at DRD2 [2] is given as “efficiently activated”.
With `N[C@H](Cc1ccccc1)C(=O)O` [D-Phe], the “activation of GPR56/AGRG1” value at GPR56/AGRG1 is given as “no activity”.
